The results in this text go back to patent US8173697B2, “Alkoxyalkyl-substituted cyclic keto-enols” (Bayer CropScience AG, priority 2006, dated 2012).

Holding throughout (format): in vivo
In one experiment the test system is Aphis gossypii. The experiment is described as follows: Aphis gossypii test (Example 12). Particulars: for Destruction (%) after 6 d: no additive. On the procedure:
For application with ammonium salts or phosphonium salts and penetration promoters (rapeseed oil methyl ester 500 EW) these are in each case added in a concentration of 1000 ppm a.i. to the spray liquor.
(§1) After the desired time the destruction in % is determined.

The test system of the next experiment is Spring barley. The experiment is described as follows: Greenhouse container trials with cereals, post-emergence, with and without safener. On the procedure:
(§2) Seeds of monocotyledonous and dicotyledonous weed plants and crop plants are placed in sandy loam soil in wood fibre pots or in plastic pots and are covered with earth and cultivated in a greenhouse and also, during the vegetation period, outdoors, outside of the greenhouse, under good growth conditions. 2 to 3 weeks after sowing, the trial plants are treated at the one- to three-leaf stage. The test compounds, formulated as wettable powders (WP) or liquids (EC), are sprayed onto the plants and the soil surface in various dosages, with a water application rate of 300 l/ha (converted) and with addition of wetting agent (0.2% to 0.3%). […]
(§3) If the testing is also to look at whether safeners can improve the tolerance of the crop plants for test substances, the following options are used for the application of the safener: • seeds of the crop plants are dressed with the safener substance prior to sowing (the amount of safener is stated as a percentage, based on the seed weight) • crop plants are sprayed with the safener, with a defined application rate per hectare, prior to application of the test substances (typically 1 day before the test substances are applied) • the safener is applied together with the test substance in the form of a tank mix (the amount of safener is reported in g/ha or as a proportion relative to the herbicide).
(§4) By comparing the effect of test substances on crop plants which have been treated with safener and without safener it is possible to assess the effect of the safener substance.

A further experiment has as its system Spring wheat. The description is as above. The settings on record: 10 days after application. On the procedure:
as §2, §3, §4

The subject of the next experiment is Maize - Arsenal. The experiment is described as follows: Greenhouse container trials with maize, pre-emergence, with and without safener. Particulars: 28 days after application.
Excerpt: Seeds of monocotyledonous and dicotyledonous weed plants and crop plants are placed in sandy loam soil in wood fibre pots or in plastic pots and are covered with earth. The test compounds, formulated as wettable powders (WP) or liquids (EC), are sprayed onto the soil surface in various dosages, with a water application rate of 300 l/ha (converted). The pots are then placed in a greenhouse under good growth conditions, and also, during the vegetation period, are placed outdoors, outside of the greenhouse, so that the plants are able to germinate and develop. 3 to 4 weeks after the trial plants have been treated, the effect of the products is rated visually in comparison to untreated controls (herbicidal effect in percent: 100% effect=plants have died, 0% effect=like control plants).
as §3, with “weight) • pots containing the crop plants” for “weight) • crop plants”, “test substances • the” for “test substances (typically 1 day before the test substances are applied) • the”
as §4

A further experiment relates to Myzus persicae. The experiment is described as follows: Myzus persicae test, activity boost through ammonium/phosphonium salts and penetration promoters (Example 11). On the procedure: For application with ammonium salts or phosphonium salts and penetration promoters (rapeseed oil methyl ester 500 EW) these are in each case added in a concentration of 1000 ppm to the spray liquor.
as §1

The mark [1] stands for this setting: 20 ppm, no additive, bell pepper plants.

For `COCC1(C)NC(=O)C(c2c(C)ccc(-c3ccc(Cl)cc3)c2C)=C1O` (stereo not shown) [I-a-7], in the experiment with Aphis gossypii (20 ppm active compound), the “Destruction (%) after 6 d +AS 1000 ppm” value is given as 10%, the “Destruction (%) after 6 d +AS +RME 1000 ppm each” value stood at 90%, the “Destruction (%) after 6 d +RME 1000 pm” value came to 70% and the “Destruction (%) after 6 d” value was determined as 5%.
Turning to `CCc1cc(-c2ccc(C)cc2)cc(C)c1C1=C(OC(=O)C(C)C)C(C)(COC)NC1=O` (stereo not shown) [I-b-5], the “Spring barley observed (%)” value is 10% with Spring barley (25 g a.i./ha, 28 days after application); 50% in the experiment on Spring barley (50 g a.i./ha, 10 days after application); 65% in the experiment on Spring barley (100 g a.i./ha, 10 days after application); 30% in the experiment on Spring barley (100 g a.i./ha, 28 days after application). Further, the “Spring wheat observed (%)” value was 10% in the experiment on Spring wheat (50 g a.i./ha) and 15% in the experiment on Spring wheat (100 g a.i./ha).
Consider `CCOC(=O)OC1=C(c2c(C)cc(-c3ccc(Cl)cc3)cc2CC)C(=O)NC1(C)COC` (stereo not shown) [I-c-1], for which the “Maize - Arsenal observed (%)” value in the experiment on Maize - Arsenal (50 g a.i./ha) is on record as 55%.
Turning to `CCc1cc(-c2ccc(Cl)cc2)cc(CC)c1C1=C(OC(=O)C(C)C)C(C)(COC)NC1=O` (stereo not shown) [I-b-2], the “Maize - Arsenal observed (%)” value with Maize - Arsenal (25 g a.i./ha) came to 40%; with Maize - Arsenal (50 g a.i./ha) it was 50%.
With `COCC1(C)NC(=O)C(c2cc(-c3ccc(Cl)cc3)ccc2C)=C1O` (stereo not shown) [I-a-1], the “Destruction (%) after 6 d +AS 1000 ppm” value worked out at 20% with Aphis gossypii (20 ppm active compound) and 90% with Aphis gossypii (100 ppm active compound). Further, the “Destruction (%) after 6 d +AS +RME 1000 ppm each” value was found to be 85% with Aphis gossypii (20 ppm active compound) and 90% in the experiment on Aphis gossypii (100 ppm active compound). The “Destruction (%) after 6 d +RME 1000 pm” value in the experiment with Aphis gossypii (20 ppm active compound) is 5%; with Aphis gossypii (100 ppm active compound) it was 90%. Moreover, the “Destruction (%) after 6 d” value was found to be 5% in the experiment on Aphis gossypii (20 ppm active compound); 60% in the experiment on Aphis gossypii (100 ppm active compound); 0% with Myzus persicae (4 ppm, +AS 1000 ppm); 75% in the experiment with Myzus persicae (4 ppm, +AS +RME 1000 ppm each); 35% in the experiment on Myzus persicae (4 ppm, +RME 1000 pm); 0% in the experiment with Myzus persicae (4 ppm, no additive, bell pepper plants). For the same compound, the “Destruction (%) after 6 d” value in the experiment on Myzus persicae (20 ppm, +AS 1000 ppm) is 65%; with Myzus persicae (20 ppm, +AS +RME 1000 ppm each), 99%; in the experiment on Myzus persicae (20 ppm, +RME 1000 pm), 98%; in the experiment with Myzus persicae (setting [1]), 0%.
For the compound `COCC1(C)NC(=O)C(c2cc(-c3ccc(F)cc3)ccc2C)=C1O` (stereo not shown) [I-a-12], the “Destruction (%) after 6 d” value in the experiment on Myzus persicae (20 ppm, +AS 1000 ppm) is 0%; in the experiment with Myzus persicae (20 ppm, +AS +RME 1000 ppm each), 99%; in the experiment on Myzus persicae (20 ppm, +RME 1000 pm), 45%; in the experiment on Myzus persicae (setting [1]), 10%; with Myzus persicae (100 ppm, +AS 1000 ppm), 98%; with Myzus persicae (100 ppm, +AS +RME 1000 ppm each), 99%. Moreover, the “Destruction (%) after 6 d” value is listed as 99% in the experiment on Myzus persicae (100 ppm, +RME 1000 pm) and 85% in the experiment on Myzus persicae (100 ppm, no additive, bell pepper plants).
